According to ChEMBL document CHEMBL1124894, “Synthesis and quantitative structure-activity relationships of diclofenac analogues” (J Med Chem, 1990):

How the values were obtained:
Cyclooxygenase = molecular target: T1, Cyclooxygenase (Bos taurus, UniProt O62664+O62698)
T1 sequence (O62664 whole entry): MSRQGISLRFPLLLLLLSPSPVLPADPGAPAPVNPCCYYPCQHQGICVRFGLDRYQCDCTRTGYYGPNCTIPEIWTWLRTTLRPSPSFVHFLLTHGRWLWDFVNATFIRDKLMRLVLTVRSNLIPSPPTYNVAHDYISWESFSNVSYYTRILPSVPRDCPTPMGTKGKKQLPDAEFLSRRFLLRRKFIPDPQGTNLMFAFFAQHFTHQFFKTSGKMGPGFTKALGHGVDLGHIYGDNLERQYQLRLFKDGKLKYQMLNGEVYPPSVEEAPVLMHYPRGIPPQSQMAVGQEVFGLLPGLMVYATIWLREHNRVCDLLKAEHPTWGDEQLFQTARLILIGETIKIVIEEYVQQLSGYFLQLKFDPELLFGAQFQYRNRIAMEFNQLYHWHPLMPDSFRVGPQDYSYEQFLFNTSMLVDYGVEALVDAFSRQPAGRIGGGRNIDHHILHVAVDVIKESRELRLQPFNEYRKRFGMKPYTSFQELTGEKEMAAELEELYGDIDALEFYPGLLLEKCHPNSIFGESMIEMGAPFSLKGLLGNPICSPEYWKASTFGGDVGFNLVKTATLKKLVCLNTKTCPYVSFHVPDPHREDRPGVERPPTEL
T1 sequence (O62698 whole entry): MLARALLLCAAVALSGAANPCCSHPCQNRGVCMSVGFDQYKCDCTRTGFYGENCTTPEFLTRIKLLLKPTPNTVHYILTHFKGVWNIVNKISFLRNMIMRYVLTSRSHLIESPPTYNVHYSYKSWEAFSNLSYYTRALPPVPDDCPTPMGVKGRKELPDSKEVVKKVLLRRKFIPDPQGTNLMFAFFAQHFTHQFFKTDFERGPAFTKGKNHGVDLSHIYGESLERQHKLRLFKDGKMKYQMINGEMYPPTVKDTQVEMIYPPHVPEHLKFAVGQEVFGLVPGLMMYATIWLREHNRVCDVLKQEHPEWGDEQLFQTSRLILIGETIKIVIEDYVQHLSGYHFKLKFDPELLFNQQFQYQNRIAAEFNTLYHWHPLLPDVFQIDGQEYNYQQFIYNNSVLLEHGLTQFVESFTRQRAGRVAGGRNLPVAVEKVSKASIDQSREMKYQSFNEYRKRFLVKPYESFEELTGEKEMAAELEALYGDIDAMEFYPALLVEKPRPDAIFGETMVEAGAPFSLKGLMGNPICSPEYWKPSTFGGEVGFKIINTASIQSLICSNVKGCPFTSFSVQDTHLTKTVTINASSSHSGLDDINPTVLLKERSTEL
Description: In vitro inhibition of bovine prostaglandin G/H synthase, using bovine seminal vesicle microsomal preparations; IC50 in umol/L

[1] = Dissociation constant (pKa); assay type: physicochemical
[2] = Partition coefficient (logD7.4); details: octanol/water, pH 7.4

Description for Rattus norvegicus: Inhibition of inflammatory hind paw edema, induced by Mycobacterium butyricum in rats; ED40 in umol/kg po

log IC50 (Cyclooxygenase) | pKa [1] | logD [2] | SMILES | Log 1/ED40 (Rattus norvegicus)
1 | 4.2 | 1.66 | O=C(O)Cc1ccccc1Nc1cccc(Cl)c1Cl | 
0.28 | 4.2 | 1.44 | O=C([O-])Cc1ccccc1Nc1c(Cl)cccc1Br.[Na+] | -0.14
0.78 | 4.2 | 1.95 | Cc1cc(C)c(C)c(Nc2ccccc2CC(=O)O)c1C | -1.25
0.3 |  | 1.03 | Cc1cccc(Nc2ccccc2CC(=O)O)c1C | -1.59
1.9 | 4.31 | 1.98 | O=C(O)Cc1ccccc1Nc1cc(Cl)cc(Cl)c1 | -2.23
1.85 |  | 1.33 | O=C(O)Cc1ccccc1Nc1ccc(Cl)cc1Cl | -1.23
1.3 |  | 1.59 | Cc1cccc(Nc2ccccc2CC(=O)O)c1Cl | -0.26
2.36 | 4.09 | 0.26 | O=C([O-])Cc1ccccc1Nc1c(F)cccc1F.[Na+] | -2.24
0 | 4.2 | 1.24 | COc1cc(Cl)c(Nc2ccccc2CC(=O)O)c(Cl)c1 | -0.49
1.82 |  | 2.93 | Cc1cc(C)c(C)c(Nc2ccc(Cl)cc2CC(=O)O)c1C | -1.2
 |  |  | Cc1ccc(Cl)c(Nc2ccccc2CC(=O)[O-])c1Cl.[Na+] | -0.65
0.05 |  | 1.27 | O=C([O-])Cc1ccccc1Nc1c(Cl)cc(F)cc1Cl.[Na+] | -0.47
1.86 |  | 0.51 | COc1c(O)cc(Cl)c(Nc2ccccc2CC(=O)O)c1Cl | -2.47
0 | 4.2 | 1.17 | Cc1cccc(Cl)c1Nc1ccccc1CC(=O)O | -0.74
1.83 |  | 1.91 | CCc1cccc(CC)c1Nc1ccccc1CC(=O)O | -1.55
0.78 | 4.07 | 1.21 | Cc1cccc(C)c1Nc1ccccc1CC(=O)O | -0.29
1.04 | 3.95 | 1.18 | COc1ccc(Cl)c(Nc2ccccc2CC(=O)O)c1Cl | -0.96
0.3 | 4.24 | 1.64 | O=C(O)Cc1ccccc1Nc1c(Cl)cccc1I | -0.11

log IC50 (Cyclooxygenase) | pKa [1] | logD [2] | SMILES | Log 1/ED40 (Rattus norvegicus)
2.15 | 4.3 | 1.8 | O=C(O)Cc1ccccc1Nc1ccc(Cl)c(Cl)c1 | -2.53
1.75 |  | 0.56 | O=C([O-])Cc1ccccc1Nc1c(F)cccc1Cl.[Na+] | -0.8
0.13 | 4.02 | 1.48 | O=C([O-])Cc1cc(F)ccc1Nc1c(Cl)cccc1Cl.[Na+] | 0.05
0.1 |  | 1.97 | O=C([O-])Cc1cc(Cl)ccc1Nc1c(Cl)cccc1Cl.[Na+] | 0.07
2.01 |  | 0.55 | O=C([O-])Cc1ccccc1Nc1ccc(F)cc1F.[Na+] | -2.85
1.04 | 4.3 | 1.54 | Cc1c(Cl)cccc1Nc1ccccc1CC(=O)O | -0.86
1.18 |  | 1.87 | O=C(O)Cc1c(Br)cccc1Nc1c(Cl)cccc1Cl | -3.43
2.31 |  | 0.91 | O=C(O)Cc1ccccc1Nc1ccccc1Cl | -1.76
2.33 | 4.48 | 1.73 | O=C([O-])Cc1c(O)cccc1Nc1c(Cl)cccc1Cl.[Na+] | 
0.25 |  | 1.62 | O=C([O-])Cc1cc(F)ccc1Nc1c(Cl)cc(F)cc1Cl.[Na+] | 0.25
2 | 4.1 | 1.64 | O=C(O)Cc1ccccc1Nc1cc(Cl)ccc1Cl | -1.01
2.46 | 4.1 | 0.19 | O=C(O)Cc1ccccc1Nc1ccccc1 | -2.94
2.47 | 4.13 | 0.25 | COc1cc(Cl)c(Nc2ccccc2CC(=O)O)c(Cl)c1O [3'-HYDROXY-4'-METHOXY-DICLOFENAC] | -2.47
1 |  | 0.72 | O=C(O)Cc1ccccc1Nc1c(Cl)ccc(O)c1Cl [3'-HYDROXY-DICLOFENAC] | -1.51
3.04 |  | 0.27 | O=C(O)Cc1cc(O)ccc1Nc1c(Cl)cc(O)cc1Cl [4',5-DIHYDROXY-DICLOFENAC] | -2.78
2.15 | 4.4 | 0.7 | O=C(O)Cc1ccccc1Nc1c(Cl)cc(O)cc1Cl [4'-HYDROXY-DICLOFENAC] | -0.98
3.35 | 4.22 | 0.76 | O=C(O)Cc1cc(O)ccc1Nc1c(Cl)cccc1Cl [5-HYDROXY-DICLOFENAC] | -0.98

SMILES | log IC50 (Cyclooxygenase) | pKa [1] | logD [2] | Log 1/ED40 (Rattus norvegicus)
COc1ccc2c(c1)c(CC(=O)O)c(C)n2C(=O)c1ccc(Cl)cc1 [INDOMETHACIN] |  |  | 1 | 
